Measured values published in patent publication US20260116920A1, “HUMAN TRANSFERRIN RECEPTOR BINDING PEPTIDE” (PEPTIDREAM INC., priority 2021, published 2026).
Where two headings read alike, the source gives them in different places. Positions of bridges follow the written chain, without caps; N, C: chain ends. Non-standard residues stand in square brackets, D forms with d. Residues, ends and D or L forms follow the SMILES beside them. *: point of attachment. Trp(1-CH2COOH) = N[C@@H](Cc1cn(CC(=O)O)c2ccccc12)C(=O)O; Nle(6-morpholino) = N[C@@H](CCCCN1CCOCC1)C(=O)O; Phe(3-COOH) = N[C@@H](Cc1cccc(C(=O)O)c1)C(=O)O; Trp(7-aza) = N[C@@H](Cc1c[nH]c2ncccc12)C(=O)O; NH(CH2CH2O)8Me = COCCOCCOCCOCCOCCOCCOCCOCCN*; NMePhe(3-Cl) = CN[C@@H](Cc1cccc(Cl)c1)C(=O)O; 3Pal(6-NH2) = Nc1ccc(C[C@H](N)C(=O)O)cn1; NMe3Pal = CN[C@@H](Cc1cccnc1)C(=O)O; NMeY = CN[C@@H](Cc1ccc(O)cc1)C(=O)O; 3Pal = N[C@@H](Cc1cccnc1)C(=O)O; 4Pal = N[C@@H](Cc1ccncc1)C(=O)O; PEG4 = NCCOCCOCCOCCOCCC(=O)O; Carboxymethyl = O=C(O)C*

Target: T1, human transferrin receptor (hTfR) (Homo sapiens, UniProt P02786)
T1 construct: made in house
T1 sequence (P02786 89-760 limits assumed): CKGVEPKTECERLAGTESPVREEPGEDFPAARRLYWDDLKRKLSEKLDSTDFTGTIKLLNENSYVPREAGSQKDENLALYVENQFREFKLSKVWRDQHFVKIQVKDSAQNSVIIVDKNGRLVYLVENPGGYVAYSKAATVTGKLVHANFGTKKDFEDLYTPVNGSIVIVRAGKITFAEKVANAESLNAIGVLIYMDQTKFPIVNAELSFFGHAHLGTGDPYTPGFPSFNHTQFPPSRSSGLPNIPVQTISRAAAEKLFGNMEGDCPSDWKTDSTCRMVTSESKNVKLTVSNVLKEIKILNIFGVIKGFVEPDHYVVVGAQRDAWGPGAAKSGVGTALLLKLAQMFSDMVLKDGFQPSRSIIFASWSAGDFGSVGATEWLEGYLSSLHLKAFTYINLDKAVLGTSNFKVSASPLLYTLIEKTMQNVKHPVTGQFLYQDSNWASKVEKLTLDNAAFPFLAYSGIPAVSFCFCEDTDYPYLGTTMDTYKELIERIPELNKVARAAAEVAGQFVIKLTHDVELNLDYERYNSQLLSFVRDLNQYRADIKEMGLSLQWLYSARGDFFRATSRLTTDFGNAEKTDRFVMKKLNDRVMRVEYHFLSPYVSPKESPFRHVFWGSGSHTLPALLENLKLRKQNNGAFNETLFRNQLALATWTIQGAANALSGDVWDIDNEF
Experiment: Evaluation of molecular interaction between transferrin receptor (hTfR) and peptide using surface plasmon resonance (SPR)
Assay type: binding
How it was run: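 Using a Ni-NTA surface bearing covalently coupled hTfR dimer, peptides were tested at five concentrations from 5 to 100 nM. Running buffer was 10 mM HEPES pH 8.0, 150 mM NaCl, 0.05% Tween 20, 0.1% BSA, 1.0% DMSO; single-cycle sensorgrams were least-squares fitted for KD.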

[1] = surface plasmon resonance, binding to hTfR, KD class symbol, read-out: SPR (KD value)
[2] = peptide with linker, surface plasmon resonance, read-out: SPR (KD class for binding to hTfR)
[3] = KD class for binding to hTfR by SPR, peptide with the linker shown in the same line, 'low signal indicates no activity', read-out: SPR

CC[C@H](C)[C@@H]1NC(=O)[C@H](Cc2cccnc2)NC(=O)[C@H](Cc2ccc(O)cc2)NC(=O)[C@H](CC(N)=O)NC(=O)[C@H](Cc2cn(CC(=O)O)c3ccccc23)NC(=O)[C@H](C(C)C)NC(=O)[C@H](Cc2cccc(Cl)c2)N(C)C(=O)[C@H](C(C)C)NC(=O)[C@H](C)NC(=O)CSC[C@@H](C(=O)NCCOCCOCCOCCOCCC(N)=O)NC(=O)[C@H](Cc2ccc(O)cc2)N(C)C(=O)[C@H](Cc2ccccc2)NC(=O)[C@H](CCC(=O)NCCOCCOCCOCCOCCOCCOCCOCCOC)NC(=O)[C@H](CCCNC(=N)N)NC(=O)[C@H]([C@@H](C)CC)NC1=O [compound 73] ({CH2CO}-AV[NMePhe(3-Cl)]V[Trp(1-CH2COOH)]NY[3Pal]IIRE(NH(CH2CH2O)8Me)F[NMeY]C[PEG4]-NH2; thioether N-15)
Kd [1]: 1 to 100 nM

CC[C@H](C)[C@@H]1NC(=O)[C@H](Cc2ccc(OCC(=O)O)cc2)NC(=O)[C@H](Cc2ccc(O)cc2)NC(=O)[C@H](CC(N)=O)NC(=O)[C@H](Cc2c[nH]c3ncccc23)NC(=O)[C@H](C(C)C)NC(=O)[C@H](Cc2cccc(Cl)c2)N(C)C(=O)[C@H](C(C)C)NC(=O)[C@H](C)NC(=O)CSC[C@@H](C(=O)NCCOCCOCCOCCOCCC(N)=O)NC(=O)[C@H](Cc2ccc(O)cc2)N(C)C(=O)[C@H](Cc2ccncc2)NC(=O)[C@H](CCCNC(=N)N)NC(=O)[C@H](CCC(N)=O)NC(=O)[C@H]([C@@H](C)CC)NC1=O [compound 137]
Kd [1]: 1 to 100 nM

CC[C@H](C)[C@@H]1NC(=O)[C@H](Cc2ccc(OCC(=O)O)cc2)NC(=O)[C@H](Cc2ccc(O)cc2)NC(=O)[C@H](CC(N)=O)NC(=O)[C@H](Cc2c[nH]c3ncccc23)NC(=O)[C@H](C(C)C)NC(=O)[C@H](Cc2cccc(Cl)c2)N(C)C(=O)[C@H](C(C)C)NC(=O)[C@H](C)NC(=O)CSC[C@@H](C(=O)NCCOCCOCCOCCOCCC(N)=O)NC(=O)[C@H](Cc2ccc(O)cc2)N(C)C(=O)[C@H](Cc2ccncc2)NC(=O)[C@H](CCCCN2CCOCC2)NC(=O)[C@H](CCC(N)=O)NC(=O)[C@H]([C@@H](C)CC)NC1=O [compound 138]
Kd [1]: 1 to 100 nM

CC[C@H](C)[C@@H]1NC(=O)[C@H](Cc2ccc(OCC(=O)O)cc2)NC(=O)[C@H](Cc2ccc(N)nc2)NC(=O)[C@H](CC(N)=O)NC(=O)[C@H](Cc2cn(CC(=O)O)c3ccccc23)NC(=O)[C@H](C(C)C)NC(=O)[C@H](Cc2cccc(Cl)c2)N(C)C(=O)[C@H](C(C)C)NC(=O)[C@H](C)NC(=O)CSC[C@@H](C(=O)NCCOCCOCCOCCOCCC(N)=O)NC(=O)[C@H](Cc2ccc(O)cc2)N(C)C(=O)[C@H](Cc2ccncc2)NC(=O)[C@H](CCCNC(=N)N)NC(=O)[C@H](CCC(=O)NCCOCCOCCOCCOCCOCCOCCOCCOC)NC(=O)[C@H]([C@@H](C)CC)NC1=O [compound 222]
Kd [2]: 1 to 100 nM

CC[C@H](C)[C@@H]1NC(=O)[C@H](Cc2ccc(O)cc2)NC(=O)[C@H](Cc2ccc(O)cc2)NC(=O)[C@H](CC(N)=O)NC(=O)[C@H](Cc2c[nH]c3ccccc23)NC(=O)[C@H](C(C)C)NC(=O)[C@H](Cc2ccccc2)N(C)C(=O)[C@H](C(C)C)NC(=O)[C@H](C)NC(=O)CSC[C@@H](C(=O)NCC(=O)N[C@H](CCC(=O)O)C(=O)N[C@H](CCC(=O)O)C(=O)N[C@H](CCC(=O)O)C(=O)N[C@H](CCC(=O)O)C(=O)N[C@H](CCC(=O)O)C(=O)N[C@@H](CSCC(=O)NC)C(N)=O)NC(=O)[C@H](Cc2ccc(O)cc2)N(C)C(=O)[C@H](Cc2ccc(O)cc2)NC(=O)[C@H](CCCNC(=N)N)NC(=O)[C@H](CCCNC(=N)N)NC(=O)[C@H]([C@@H](C)CC)NC1=O [compound 107]
Kd [1]: 1 to 100 nM

CC[C@H](C)[C@@H]1NC(=O)[C@H](Cc2ccc(O)cc2)NC(=O)[C@H](Cc2ccc(O)cc2)NC(=O)[C@H](CC(N)=O)NC(=O)[C@H](Cc2c[nH]c3ccc(Cl)cc23)NC(=O)[C@H](C(C)C)NC(=O)[C@H](Cc2ccc(F)cc2)N(C)C(=O)[C@H](C(C)C)NC(=O)[C@H](C)NC(=O)CSC[C@@H](C(=O)NCCOCCOCCOCCOCCC(N)=O)NC(=O)[C@H](Cc2ccc(O)cc2)N(C)C(=O)[C@H](Cc2ccccc2)NC(=O)[C@H](CCCNC(=N)N)NC(=O)[C@H](CCCNC(=N)N)NC(=O)[C@H]([C@@H](C)CC)NC1=O [compound 22]
Kd [1]: < 1 nM

CC[C@H](C)[C@@H]1NC(=O)[C@H](Cc2cccnc2)NC(=O)[C@H](Cc2ccc(O)cc2)NC(=O)[C@H](CC(N)=O)NC(=O)[C@H](Cc2c[nH]c3ccccc23)NC(=O)[C@H](C(C)C)NC(=O)[C@H](Cc2cccc(Cl)c2)N(C)C(=O)[C@H](C(C)C)NC(=O)[C@H](C)NC(=O)CSC[C@@H](C(=O)NCC(=O)N[C@H](CCC(=O)O)C(=O)N[C@H](CCC(=O)O)C(=O)N[C@H](CCC(=O)O)C(=O)N[C@H](CO)C(=O)N[C@H](CO)C(=O)N[C@@H](CCCCN=[N+]=[N-])C(N)=O)NC(=O)[C@H](Cc2ccc(O)cc2)N(C)C(=O)[C@H](Cc2ccncc2)NC(=O)[C@H](CCCNC(=N)N)NC(=O)[C@H](CCCNC(=N)N)NC(=O)[C@H]([C@@H](C)CC)NC1=O [compound 69]
Kd [1]: 1 to 100 nM

CC[C@H](C)[C@@H]1NC(=O)[C@H](Cc2ccncc2)NC(=O)[C@H](Cc2ccc(N)nc2)NC(=O)[C@H](CC(N)=O)NC(=O)[C@H](Cc2c[nH]c3ccccc23)NC(=O)[C@H](C(C)C)NC(=O)[C@H](Cc2cccc(Cl)c2)N(C)C(=O)[C@H](C(C)C)NC(=O)[C@H](C)NC(=O)CSC[C@@H](C(=O)NCCOCCOCCOCCOCCC(N)=O)NC(=O)[C@H](Cc2ccc(O)cc2)N(C)C(=O)[C@H](Cc2ccncc2)NC(=O)[C@H](CCCNC(=N)N)NC(=O)[C@H](CCCNC(=N)N)NC(=O)[C@H]([C@@H](C)CC)NC1=O [compound 62] ({CH2CO}-AV[NMePhe(3-Cl)]VWN[3Pal(6-NH2)][4Pal]IIRR[4Pal][NMeY]C[PEG4]-NH2; thioether N-15)
Kd [1]: 1 to 100 nM

CC[C@H](C)[C@@H]1NC(=O)[C@H](Cc2ccc(OCC(=O)O)cc2)NC(=O)[C@H](Cc2ccc(O)cc2)NC(=O)[C@H](CC(N)=O)NC(=O)[C@H](Cc2cn(CC(=O)O)c3ccccc23)NC(=O)[C@H](C(C)C)NC(=O)[C@H](Cc2cccc(Cl)c2)N(C)C(=O)[C@H](C(C)C)NC(=O)[C@H](C)NC(=O)CSC[C@@H](C(=O)NCCOCCOCCOCCOCCC(N)=O)NC(=O)[C@H](Cc2ccc(O)cc2)N(C)C(=O)[C@H](Cc2ccccc2)NC(=O)[C@H](CCC(N)=O)NC(=O)[C@H](CCCNC(=N)N)NC(=O)[C@H]([C@@H](C)CC)NC1=O [compound 105]
Kd [1]: 1 to 100 nM

CC[C@H](C)[C@@H]1NC(=O)[C@H](Cc2ccc(OCC(=O)O)cc2)NC(=O)[C@H](Cc2ccc(N)nc2)NC(=O)[C@H](CC(N)=O)NC(=O)[C@H](Cc2c[nH]c3ncccc23)NC(=O)[C@H](C(C)C)NC(=O)[C@H](Cc2cccc(Cl)c2)N(C)C(=O)[C@H](C(C)C)NC(=O)[C@H](C)NC(=O)CSC[C@@H](C(=O)NCCOCCOCCOCCOCCC(N)=O)NC(=O)[C@H](Cc2ccc(O)cc2)N(C)C(=O)[C@H](Cc2cccc(C(=O)O)c2)NC(=O)[C@H](CCCNC(=N)N)NC(=O)[C@H](CCC(=O)NCCOCCOCCOCCOCCOCCOCCOCCOC)NC(=O)[C@H]([C@@H](C)CC)NC1=O [compound 239] ({CH2CO}-AV[NMePhe(3-Cl)]V[Trp(7-aza)]N[3Pal(6-NH2)]Y(Carboxymethyl)IIE(NH(CH2CH2O)8Me)R[Phe(3-COOH)][NMeY]C[PEG4]-NH2; thioether N-15)
Kd [2]: 1 to 100 nM

CC[C@H](C)[C@@H]1NC(=O)[C@H](Cc2cccnc2)NC(=O)[C@H](Cc2ccc(O)cc2)NC(=O)[C@H](CC(N)=O)NC(=O)[C@H](Cc2c[nH]c3ccccc23)NC(=O)[C@H](C(C)C)NC(=O)[C@H](Cc2cccc(Cl)c2)N(C)C(=O)[C@H](C(C)C)NC(=O)[C@H](C)NC(=O)CSC[C@@H](C(=O)NCCOCCOCCOCCOCCC(N)=O)NC(=O)[C@H](Cc2ccc(O)cc2)N(C)C(=O)[C@H](Cc2cccc(C(=O)O)c2)NC(=O)[C@H](CCCNC(=N)N)NC(=O)[C@H](CCCNC(=N)N)NC(=O)[C@H]([C@@H](C)CC)NC1=O [894_0361] ({CH2CO}-AV[NMePhe(3-Cl)]VWNY[3Pal]IIRR[Phe(3-COOH)][NMeY]C[PEG4]-NH2; thioether N-15)
Kd [3]: 1 to 100 nM

CC[C@H](C)[C@@H]1NC(=O)[C@H](Cc2ccc(OC)cc2)NC(=O)[C@H](Cc2ccc(O)cc2)NC(=O)[C@H](CC(N)=O)NC(=O)[C@H](Cc2c[nH]c3ccccc23)NC(=O)[C@H](C(C)C)NC(=O)[C@H](Cc2cccnc2)N(C)C(=O)[C@H](C(C)C)NC(=O)[C@H](C)NC(=O)CSC[C@@H](C(=O)NCCOCCOCCOCCOCCC(N)=O)NC(=O)[C@H](Cc2ccc(O)cc2)N(C)C(=O)[C@H](Cc2ccncc2)NC(=O)[C@H](CCCNC(=N)N)NC(=O)[C@H](CCCNC(=N)N)NC(=O)[C@H]([C@@H](C)CC)NC1=O [compound 58] ({CH2CO}-AV[NMe3Pal]VWNYY(Me)IIRR[4Pal][NMeY]C[PEG4]-NH2; thioether N-15)
Kd [1]: 1 to 100 nM

CC[C@H](C)[C@@H]1NC(=O)[C@H](Cc2ccc(OCC(=O)O)cc2)NC(=O)[C@H](Cc2ccc(O)cc2)NC(=O)[C@H](CC(N)=O)NC(=O)[C@H](Cc2cn(CC(=O)O)c3ccccc23)NC(=O)[C@H](C(C)C)NC(=O)[C@H](Cc2cccc(Cl)c2)N(C)C(=O)[C@H](C(C)C)NC(=O)[C@H](C)NC(=O)CSC[C@@H](C(=O)NCCOCCOCCOCCOCCC(N)=O)NC(=O)[C@H](Cc2ccc(O)cc2)N(C)C(=O)[C@H](Cc2ccccc2)NC(=O)[C@H](CCCCN2CCOCC2)NC(=O)[C@H](CCCNC(=N)N)NC(=O)[C@H]([C@@H](C)CC)NC1=O [894_0389] ({CH2CO}-AV[NMePhe(3-Cl)]V[Trp(1-CH2COOH)]NYY(Carboxymethyl)IIR[Nle(6-morpholino)]F[NMeY]C[PEG4]-NH2; thioether N-15)
Kd [3]: < 1 nM
